In test [1] the test system is A. montanum. Nature of the test: Effect of foliar spraying with histidine on nickel tolerance. The note with it: 20 mM histidine daily foliar spray with 0.01% Tween 20; 0.03 mM NiSO4 in root medium, 23 d; compared with 20 mM glutamine. Type of test: in vivo, Alyssum montanum. The procedure:
6. […]. Thus, chelation of nickel by histidine is important both in the detoxification of the metal ion within the plant and in facilitating the transport of the metal from root to shoot, a characteristic of metal-hyperaccumulator plants generally (Baker, A. J. M. and Brooks, R. R. (1989) loc. cit.).
METHODS. Plants were germinated for 7 d on floating nets in 1 mM Ca(NO3)2 solution, subsequently transferred to 1.2-1 culture vessels (10 plants per vessel), and supplied with modified 0.1-strength Hoagland solution containing 0.1 mM KH2PO4, 0.5 mM KNO3, 0.4 mM Ca(NO3)2, 0.2 mM MgSO4, 0.01 mM FeNaEDTA, 0.01 mM H3BO3, 2 μM MnSO4, 0.2 μM ZnSO4, 0.2 μM CuSO4, 0.1 μM Na2MoO4 and 0.02 mM NaCl, supplemented with 0, 0.01, 0.03, 0.1, 0.3, 1, or 3 mM NiSO4. Plants were grown in a glasshouse at night temperatures between 14° C. and 18° C. and day temperatures between 22° C. and 34° C. with supplementary lighting provided by sodium-vapour lamps to give a 16-h photoperiod. Culture solutions were continuously aerated and exchanged every 7 d; solution pH remained in the range 5.6 to 6.0. Plants were harvested after 18 d, rinsed with distilled water, dried at 80° C. for 48 h and weighed. […].
FIG. 4. […] Values of biomass production and root elongation are for nickel-treated plants expressed as percentages of the respective controls grown in the absence of nickel. […]

Test [2] concerns A. montanum. The test is described as follows: Effect of histidine in the root medium on xylem-sap exudation and nickel flux of excised roots. Type of test: in vivo, Alyssum montanum. The note with it: 0.3 mM NiSO4 with or without 0.3 mM histidine in root medium, exudate collected over 12 h. The text has this: 6. […] That is, the application of relatively high concentrations of histidine exogenously is able to increase markedly both the nickel tolerance of an otherwise non-tolerant species of Alyssum (A. montanum) and to cause these plants to translocate nickel out of the root system at much higher rates. Thus, chelation of nickel by histidine is important both in the detoxification of the metal ion within the plant and in facilitating the transport of the metal from root to shoot, a characteristic of metal-hyperaccumulator plants generally (Baker, A. J. M. and Brooks, R. R. (1989) loc. cit.).
FIG. 4. Effect of exogenously applied histidine on nickel tolerance and xylem nickel translocation. a, Effect of foliar spraying with histidine (compared with glutamine) on nickel tolerance of A. montanum, assayed as the effect on whole-plant dry biomass production and root elongation. After germination for 7 d, plants were grown in modified Hoagland solution (FIG. 1) containing either 0 or 0.03 mM NiSO4 for 23 d and were sprayed daily with a solution of either 20 mM glutamine (Ni) or 20 mM histidine (His+Ni), both containing 0.01% (v/v) of the non-ionic detergent Tween 20. Values of biomass production and root elongation are for nickel-treated plants expressed as percentages of the respective controls grown in the absence of nickel. Each bar represents the mean of 9 plants+1 SE. […]

A further test relates to A. lesbiacum. Described as above. Type of test: in vivo, Alyssum lesbiacum. The note with it: 0.3 mM NiSO4 with or without 0.3 mM histidine in root medium, 12 h. From the text: FIG. 4. Effect of exogenously applied histidine on nickel tolerance and xylem nickel translocation. a, Effect of foliar spraying with histidine (compared with glutamine) on nickel tolerance of A. montanum, assayed as the effect on whole-plant dry biomass production and root elongation. […]. Values of biomass production and root elongation are for nickel-treated plants expressed as percentages of the respective controls grown in the absence of nickel. […]. Roots of 4-week-old plants were excised and exposed to a root medium of modified Hoagland solution supplemented with either 0.3 mM MgSO4 (controls) or 0.3 mM NiSO4, with or without 0.3 mM added histidine.

For test [3], the system named is A. montanum. Particulars: histidine supplied to the root medium of excised roots; earlier symposium report; cited from earlier work.
The subject of test [4] is A. montanum. The note with it: histidine supplied to the xylem of excised shoots; cited from earlier work.

“Also recorded” adds a separate entry of the source.

Turning to `N[C@@H](Cc1c[nH]cn1)C(=O)O` [histidine], in the test on A. montanum [1], the “root elongation (inhibitory effect of nickel)” value is on record as “halving of the inhibitory effect; also recorded: significantly greater” and the “whole-plant dry biomass production” value is “more than twofold increase; also recorded: significantly greater”. Besides, in the test with A. montanum [2], the “flux of nickel through the xylem” value is listed as “greatly increased; also recorded: significantly greater” and the “rate of xylem-sap exudation” value was “moderated the adverse effect of nickel; also recorded: significantly greater”. In addition, in the test on A. lesbiacum, the nickel flux result was “no significant differences” and the xylem exudation rate entry is reported as “no significant differences”. Also, the “toxicity of nickel (exudation of sap, flux of nickel through the root system)” value in the test on A. montanum [3] is recorded as “apparently reduced the toxicity of nickel”. The toxicity of nickel entry in the test with A. montanum [4] is recorded as “apparently reduced the toxicity of nickel”.

Source of the values: patent US6657106B2, “Removal of metals from contaminated substrates by plants” (ISIS Innovation Limited, priority 1995, dated 2003).
